Laboratory results from patent US7442798B2, “Autoinducer molecules and uses therefor” (priority 2000, dated 2008).
“Also recorded” adds a separate entry of the source.

Columns and labels:
lasB′-lacZ fusion [1] = test: PQS bioassay: activation of lasB′-lacZ fusion in P. aeruginosa strain PAO-R1 (lasR−) (pTS400), β-galactosidase assay; format: cell-based, Pseudomonas aeruginosa
Protocol: To monitor PQS bioactivity, 1-ml cultures of P. aeruginosa strain PAO-R1 (pTS400) were grown for 18 h at 37° C. with shaking (260 rpm; initial optical density was 0.02 at 660 nm) in the presence of culture extract or synthetic PQS. This was followed by measuring activation of the lasB′-lacZ fusion with the use of β-galactosidase (β-gal) assays as described by Miller (19). For culture extracts, bacterial culture fluid was extracted with ethyl acetate and was prepared as described (3). Extracts that were resuspended in ethyl acetate were added to bioassay tubes, and ethyl acetate was removed by drying under a stream of nitrogen. Unless otherwise specified, the amount of material assayed was extracted from 10 ml of culture fluid.

lasB′-lacZ fusion [2] = details: strain PAO-R1 (lasR) (pTS400); cited from earlier work
lasB′-lacZ = lasB′-lacZ bioassay in lasR, rhlR double mutant strain PAO-JP3 (pTS400); format: cell-based, Pseudomonas aeruginosa
Protocol: This molecule was determined to have a 4-quinolone base structure and therefore has been designated as the Pseudomonas quinolone signal (PQS). Furthermore, exogenously added PQS induced a lasB′-lacZ fusion in the P. aeruginosa lasR mutant, strain PAO-R1, containing the plasmid pTS400. […] Despite the ability of PQS to activate lasB′-lacZ in the absence of lasR, the production of PQS required an active LasR protein. […] It was also determined that at least RhlR was required for PQS to act as a signal because lasB′-lacZ was not induced by PQS in the lasR, rhlR double mutant, strain PAO-JP3, containing the plasmid pTS400.

RhlR = test: E. coli bioassay: strain DH5a (pECP62.5) with lasB′-lacZ reporter and inducible tacp-rhlR; format: cell-based, Escherichia coli; details: E. coli strain DH5a (pECP62.5), tacp-rhlR induced
Protocol: Using this information, an experiment was conducted to define the requirements for signal activity by developing an E. coli bioassay for the signal. E. coli strain DH5a was transformed with plasmid pECP62.5, which contained the lasB′-lacZ reporter and the inducible tacp-rhlR gene. If the signal worked directly through RhlR, then the induction of tacp-rhlR in the presence of exogenously added signal should result in the activation of lasB′-lacZ in E. coli strain DH5a (pECP62.5).

Staphylococcus aureus = test: anti-Staphylococcus aureus activity; format: cell-based
E. coli = test: anti-E. coli activity; format: cell-based

SMILES	induction of lasB′-lacZ / activity in the PQS bioassay (in words) (lasB′-lacZ fusion [1]; strain PAO-R1 (lasR−) (pTS400))	response of lasB′-lacZ fusion to exogenously added autoinducer (in words) (lasB′-lacZ fusion [2])	also measured
CCCC(=O)N[C@H]1CCOC1=O [C4-HSL, N-butanoyl-L-homoserine lactone, reference compound]	could not be mimicked	mildly activated	
CCCCCCCc1[nH]c2ccccc2c(=O)c1O [PQS, 2-heptyl-3-hydroxy-4-quinolone]	active; also recorded: dose-dependent induction		activation of the lasB promoter (β-gal activity) (lasB′-lacZ fusion [1]; 5 mM synthetic PQS, strain PAO-R1 (lasR−) (pTS400), FIG. 6): 148 Miller units; EC50 (lasB′-lacZ fusion [1]; Pseudomonas aeruginosa, read-out: amount required to activate the bioassay to half of its maximum activity): ~30 µM; induction of lasB′-lacZ (in words) (lasB′-lacZ): not induced; PQS response, lasB′-lacZ, in recombinant E. coli expressing RhlR (in words) (RhlR): not replicated; anti-Staphylococcus aureus activity (Staphylococcus aureus): does not have detectable; anti-E. coli activity (E. coli): does not have detectable
CCCCCCCCCC(=O)CC(=O)N[C@H]1CCOC1=O [3-oxo-C12-HSL, N-3-(oxododecanoyl)-L-homoserine lactone, reference compound]	could not be mimicked	unresponsive	
CCCCCCCc1cc(O)c2ccccc2[n+]1[O-] [2-heptyl-4-hydroxy-quinoline-N-oxide, reference compound]	not active		
CCCCCCCC1C(=O)c2ccccc2N=C1O (stereo not shown) [2-hydroxy-3-heptyl-4-quinolone, reference compound]	not active		
